Assay results as given in patent publication US20050203189A1, “Remedies for chronic kidney diseases” (priority 2002, published 2005).

Assays:
[1] = target: T1, Rat renal cortex-derived BLMVs Na+/Ca2+ exchanger (Rattus norvegicus, UniProt Q01728); experiment: Rat renal cortex-derived BLMV Na+/Ca2+ exchange activity, Na-dependent 45Ca uptake; format: biochemical; conditions: for IC50: rat renal cortex BLMVs, read-out: Inhibitory activity against Na+/Ca2+ exchange (Na-dependent 45Ca uptake), IC50 value, Renal cortex
T1 construct: BLMVs were prepared from rat renal cortex; from tissue; host or cells: rat renal cortex basolateral membrane vesicles
Description: Preparation of Rat Renal Cortex-Derived BLMVs (Basolateral Membrane Vesicles) and Method of Measuring for their Na^+/Ca^2+ Exchange Activity
BLMVs were prepared from rat renal cortex and assayed for Na^+/Ca^2+ exchange activity according to the procedures described in Am. J. Physiol., vol. 266, p. F785 (1994).
After being excised from rats, the kidneys were placed in ice-cold sucrose buffer ([…], 0.1 mM PMSF, 10 mM Tris-HCl (pH 7.6)) and decapsulated. The isolated cortex was then finely minced in the sucrose buffer and homogenized sequentially with a Dounce-type homogenizer and a Polytron-type homogenizer, followed by centrifugation at 2500 g for 15 minutes to collect the supernatant. Centrifugation was repeated at 24000 g for 20 minutes to collect the white fluffy portion of the pellet. After further addition of the sucrose buffer, the collected fraction was homogenized with a Dounce-type homogenizer, supplemented with Percoll and then centrifuged at 30000 g for 35 minutes to collect the middle layer. After addition of buffer (100 mM KCl, 100 mM mannitol, 5 mM HEPES-Tris (pH 7.4)), centrifugation was carried out at 34000 g for 30 minutes to collect the loose white pellet (BLMVs). The pellet was further suspended in the KCl-mannitol buffer and then centrifuged at 34000 g for 30 minutes to collect the precipitate, which was used for activity assay.
(Method of Measuring for Na^+/Ca^2+ Exchanger (Na-Dependent ^45Ca Uptake))
The BLMVs thus prepared were equilibrated at 37° C. for 10 minutes in pre-equilibration buffer (100 mM NaCl, 40 mM KCl, 1 mM MgSO4, 10 mM glucose, 5 mM HEPES-Tris (pH 7.4)) and then centrifuged at 20000 g for 5 minutes to collect the precipitate, which was then resuspended in the pre-equilibration buffer. Centrifugation was repeated to collect the precipitate, followed by resuspension in the pre-equilibration buffer. […] Subsequently, the filter was washed twice with 2 ml stop solution and then the amount of ^45Ca trapped inside the BLMVs was determined by using liquid scintillation method.

[2] = target: T2, Canine cardiac sarcolemmal vesicle Na+/Ca2+ exchanger (Canis lupus familiaris, UniProt P23685); experiment: Canine cardiac sarcolemmal vesicle Na+/Ca2+ exchanger, Na-dependent 45Ca uptake; format: biochemical; conditions: canine cardiac sarcolemmal vesicles; read-out: Inhibitory activity against Na+/Ca2+ exchange (Na-dependent 45Ca uptake), IC50 value, Cardiac sarcolemma
T2 construct: Canine cardiac sarcolemmal vesicles (0.5 mg/ml) were prepared by centrifugal fractionation; from tissue; host or cells: canine cardiac sarcolemmal vesicles
Description: Method of Measuring for Canine Cardiac Sarcolemmal Vesicle Na^+/Ca^2+ Exchanger
Canine cardiac sarcolemmal vesicles (0.5 mg/ml) were prepared by centrifugal fractionation as described in Methods enzymology, vol. 157, p. 85 (1988) and suspended in Solution A (20 mM MOPS-Tris (pH 7.4), 160 mM NaCl or KCl), followed by incubation at room temperature for about one hour to cause Na or K loading into the vesicles. This suspension was diluted 50-fold with 20 μM ^45CaCl2-containing buffer to induce ^45Ca uptake, followed by dilution with the buffer (0° C.) to stop the reaction. The membrane vesicles were immediately collected on a nitrocellulose filter. Subsequently, ^45Ca trapped inside the membrane vesicles was determined by liquid scintillation counting. The Na^+/Ca^2+ exchange activity was evaluated by subtracting the value obtained for K loading from the value obtained for Na loading. The above assay for Na^+/Ca^2+ exchange activity in canine cardiac sarcolemmal vesicles was performed according to the procedures described in J. Biol. Chem., vol. 257, p. 5111 (1982).

[3] = test system: Brain microsomal Na+/Ca2+ exchanger; experiment: Brain microsomal Na+/Ca2+ exchanger, Na-dependent 45Ca uptake; format: biochemical; conditions: rat brain microsomes; read-out: Inhibitory activity against Na+/Ca2+ exchange (Na-dependent 45Ca uptake), IC50 value, Brain
Description: Method of Measuring for Brain Microsomal Na^+/Ca^2+ Exchanger
Brain microsomes (1.5 mg/mil) obtained from 8-week-old rats were pre-treated with 160 mM NaCl-containing buffer to cause Na loading into membrane vesicles. This suspension was diluted 50-fold with 20 μM ^45CaCl2-containing buffer to induce ^45Ca uptake, followed by dilution with the buffer (0° C.) to stop the reaction. The membrane vesicles were immediately collected on a nitrocellulose filter. Subsequently, ^45Ca trapped inside the membrane vesicles was determined by liquid scintillation counting. The above assay for Na^+/Ca^2+ exchange activity in brain microsomes was performed according to the procedures described in J. Biol. Chem., vol. 257, p. 5111 (1982).

[4] = test system: ZSF-1 rats; experiment: Kidney protective activity in spontaneous diabetic rats (ZSF-1); format: in vivo, rat; conditions: for Amount of urinary albumin excretion / Amount of urinary protein excretion: ZSF-1 rats
Description: ZSF-1 rats and ZSF-1/lean rats which were control animals (8 weeks old) obtained from The Jackson Laboratory were used for this test. The rats were divided into 5 groups (8 individuals for each group) for the test. • Group I: ZSF-1/lean+solvent orally administered (twice a day) • Group II: ZSF-1+solvent orally administered (twice a day) • Group III: ZSF-1+SEA0400 1 mg/kg orally administered (twice a day) • Group IV: ZSF-1+SEA0400 3 mg/kg orally administered (twice a day) • Group V: ZSF-1+SEA0400 10 mg/kg orally administered (twice a day)
The solvent and SEA0400 were orally administered twice a day (first time at 8:30 to 10:30 and second time at 16:30 to 18:30) for consecutive 8 weeks. Eight weeks after the administration started, each of the rats was placed in a metabolic cage where urine was taken so that the amounts of protein and albumin in urine were measured to observe the effect oil the kidney function. Determination of the amounts of protein and albumin was performed following the description of the above-mentioned references using an autoanalyzer (HITACHI 7060 Automatic Analyzer).

[5] = test system: Dahl-salt sensitive (Dahl-S) rats; experiment: Kidney protective activity in Dahl-salt sensitive rat; format: in vivo; conditions: 10 mg/kg orally twice a day, 6 weeks
Description: This test was conducted following the method described in J. Cardiovascular Pharmacology, Vol. 23, p. 970 (1994). Specifically, procedures are as follows.
Dahl-salt sensitive (Dahl-S) rats and Dahl-salt resistant (Dahl-R) rats as control animals (male, 7 weeks old) were used for the experiment. The rats were divided into 3 groups (6 individuals for each group) for the test. • Group I: Dahl-R+4% NaCl chow+solvent orally administered (twice a day) • Group II: Dahl-S+4% NaCl chow+solvent orally administered (twice a day) • Group III: Dahl-S+4% NaCl chow+SEA0400 10 mg/kg orally administered (twice a day)
Each animal was fed with a 4% NaCl high-salt-containing chow (whereas normal chow contains 0.6% NaCl) and water adlibitum. The solvent and SEA0400 were orally, administered twice a day (first time at 8:30 to 9:30 and second time at 16:30 to 17:30) for consecutive 6 weeks. In 6 weeks after the administration started, each of the rats was placed in a metabolic cage where urine was taken so that the amounts of protein and albumin in urine were measured to observe the effect on the kidney function. Determination of the amounts of protein and albumin in urine was performed following the method described in Bunseki Kagaku, Vol. 32, pp. E379-E386 (1983) and Hypertension, Vol. 40, No. 6, pp. 834-839 (2002) using an autoanalyzer (HITACHI Automatic Analyzer 7060).

Row | Structure (SMILES) | Inhibitory activity relative to SEA0400, renal cortex-derived Na+/Ca2+ exchange activity ([1]; relative to SEA0400) | IC50 [2] [µM] | IC50 [3] [µM] | IC50 [1] [µM] | Amount of urinary albumin excretion ([4]; 1 mg/kg orally twice a day, 8 weeks (Group III), solvent group 28±5, lean 1±0.1) [mg/day] | Amount of urinary protein excretion ([4]; 1 mg/kg orally twice a day, 8 weeks (Group III), solvent group 58±9, lean 14±1) [mg/day] | Amount of urinary albumin excretion ([4]; 3 mg/kg orally twice a day, 8 weeks (Group IV), solvent group 28±5) [mg/day] | Amount of urinary protein excretion ([4]; 3 mg/kg orally twice a day, 8 weeks (Group IV), solvent group 58±9) [mg/day] | Amount of urinary albumin excretion ([4]; 10 mg/kg orally twice a day, 8 weeks (Group V), solvent group 28±5, significantly lower) [mg/day] | Amount of urinary protein excretion ([4]; 10 mg/kg orally twice a day, 8 weeks (Group V), solvent group 58±9, significantly lower) [mg/day] | Kidney protective activity (effect on increase in urinary protein and albumin excretion) ([4]; spontaneous diabetic rats (ZSF-1), orally twice a day, 8 weeks) | Kidney protective activity (effect on increase in urinary protein and albumin excretion) [5] | Amount of urinary albumin excretion ([5]; 4% NaCl chow, solvent group 109±14, Dahl-R 2±1) [mg/day] | Amount of urinary protein excretion ([5]; 4% NaCl chow, solvent group 144±11, Dahl-R 23±2) [mg/day]
1 | O=[N+]([O-])c1cccnc1Oc1ccc(OCc2ccc(F)cc2)cc1 [SEA0064] | about 0.07 fold | – | – | – | – | – | – | – | – | – | – | – | – | –
2 | N=C(N)SCCc1ccc(OCc2ccc([N+](=O)[O-])cc2)cc1 [K-BR7943, 2-[2-[4-[nitrobenzyloxy]phenyl]ethyl]isothio-ureamethanesulfonate, reference compound] | – | 7 | 11 | 6.8 | – | – | – | – | – | – | – | – | – | –
3 | CCOc1ccc(Oc2ccc(OCc3cc(F)ccc3F)cc2)c(N)c1 [SEA0400, 2-[4-[(2,5-difluorophenyl)methoxy]phenoxy]-5-ethoxyaniline] | – | 0.09 | 0.2 | 0.02 | 20 ± 5 | 40 ± 8 | 17 ± 5 | 37 ± 7 | 9 ± 2 | 29 ± 5 | significantly inhibited the increase in urinary protein and albumin excretion | significantly inhibited the increase in urinary protein and albumin excretion | 58 ± 8 | 91 ± 12
